# From patent US8546392B2, “17Beta-hydroxysteroid dehydrogenase type 1 inhibitors for the treatment of hormone-related diseases” (Universitaet des Saarlandes, priority 2008, dated 2013)
# Read-outs that look alike come from different tables or passages of the source.
# How the values were obtained:
# [1] = In vivo pharmacokinetics (rat), cassette dosing method; conditions: cassette dosing perorally 10 mg/kg, male Wistar rats; for AUC(0-t) / Tmax / AUC(0-inf): rat, plasma, po; for AUC(0-inf): extrapolated to ∞
# From the text: Labrasol/water 1/1). The plasma profiles were established by means of LC-MS/MS.
# 17β-HSD1 = 17β-HSD1 (Homo sapiens (Human), UniProt P14061); experiment: 17β-HSD1 test assay (recombinant protein from Sf9 insect cells, 3H-estrone/NADPH); assay type: biochemical; conditions: for inhibition at 1 µM: read-out: HSD 1 μM (% inhibition of HSD1); for inhibition at 0.1 µM: read-out: HSD1 100 nM (% inhibition)
# 17β-HSD1, sequence (P14061 whole entry): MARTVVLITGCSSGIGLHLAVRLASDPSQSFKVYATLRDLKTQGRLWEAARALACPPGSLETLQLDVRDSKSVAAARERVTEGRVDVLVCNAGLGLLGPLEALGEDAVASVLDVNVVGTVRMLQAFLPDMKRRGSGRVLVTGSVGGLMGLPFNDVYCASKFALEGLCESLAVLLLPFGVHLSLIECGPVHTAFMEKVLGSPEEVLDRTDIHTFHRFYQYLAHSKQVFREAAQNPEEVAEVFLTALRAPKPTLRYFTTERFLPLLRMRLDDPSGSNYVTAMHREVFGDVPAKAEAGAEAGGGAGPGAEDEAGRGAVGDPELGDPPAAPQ
# Method: Recombinant protein obtained from Sf9 insect cells (0.1 μg/ml) is incubated with 20 mM KH2PO4, pH 7.4, 30 nM ^3H-estrone and 1 mM NADPH for 30 min at RT in the presence of the potential inhibitor in a concentration of 1 μM or 100 nM. The stock solutions of the compounds are prepared in DMSO (dimethylsulfoxide) so that the final concentration of DMSO in the sample is 1%. After the prescribed incubation time, the reaction is quenched by adding trichloroacetic acid (10% final concentration). The samples are centrifuged in microtitration plates at 400 rpm for 10 min, and the supernatants are charged on a reversed-phase HPLC equipped with a Waters Symmetrie C18 column and Waters Sentry Guard column. The isocratic HPLC run is performed at RT with a flow rate of 1 ml/min and acetonitrile/water 48:52 as the eluent. The radioactivity was measured by means of a Packard Flow Scintillation Analyzer. […]
# estrogen receptor β = estrogen receptor β (Homo sapiens (Human), UniProt Q92731); experiment: Estrogen receptor binding assay, ERβ
# estrogen receptor β, sequence (Q92731 whole entry): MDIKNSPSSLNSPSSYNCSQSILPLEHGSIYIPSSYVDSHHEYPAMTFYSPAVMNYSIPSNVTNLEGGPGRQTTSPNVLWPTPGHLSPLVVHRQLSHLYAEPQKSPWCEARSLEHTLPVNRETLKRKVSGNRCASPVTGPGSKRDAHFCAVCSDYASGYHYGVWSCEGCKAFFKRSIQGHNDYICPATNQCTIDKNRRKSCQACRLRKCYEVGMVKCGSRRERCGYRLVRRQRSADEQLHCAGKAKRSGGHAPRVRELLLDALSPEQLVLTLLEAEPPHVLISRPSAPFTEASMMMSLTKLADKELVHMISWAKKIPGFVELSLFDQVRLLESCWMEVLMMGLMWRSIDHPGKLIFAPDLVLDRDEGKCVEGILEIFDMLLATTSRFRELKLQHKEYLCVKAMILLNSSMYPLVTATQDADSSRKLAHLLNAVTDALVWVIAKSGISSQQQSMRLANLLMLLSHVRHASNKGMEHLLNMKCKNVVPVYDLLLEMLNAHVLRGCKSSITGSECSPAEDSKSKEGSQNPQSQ
# estrogen receptor α = estrogen receptor α (Homo sapiens (Human), UniProt P03372); experiment: Estrogen receptor binding assay, ERα
# estrogen receptor α, sequence (P03372 whole entry): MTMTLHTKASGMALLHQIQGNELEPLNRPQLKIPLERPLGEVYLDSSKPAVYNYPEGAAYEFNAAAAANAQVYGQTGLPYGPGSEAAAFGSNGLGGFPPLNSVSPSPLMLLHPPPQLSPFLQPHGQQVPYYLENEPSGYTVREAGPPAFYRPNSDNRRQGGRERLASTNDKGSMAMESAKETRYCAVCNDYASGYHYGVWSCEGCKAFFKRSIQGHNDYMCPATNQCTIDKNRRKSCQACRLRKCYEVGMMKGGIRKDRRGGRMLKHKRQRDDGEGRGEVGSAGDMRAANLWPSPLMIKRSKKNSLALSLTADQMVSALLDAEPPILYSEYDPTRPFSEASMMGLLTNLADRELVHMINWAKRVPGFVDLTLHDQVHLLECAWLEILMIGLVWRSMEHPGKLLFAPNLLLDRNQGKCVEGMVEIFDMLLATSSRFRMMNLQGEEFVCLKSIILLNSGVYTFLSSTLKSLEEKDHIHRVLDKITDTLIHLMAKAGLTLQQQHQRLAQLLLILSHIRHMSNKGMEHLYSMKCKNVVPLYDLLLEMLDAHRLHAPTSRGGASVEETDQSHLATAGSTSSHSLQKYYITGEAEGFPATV
# 17β-HSD2 = 17β-HSD2 (Homo sapiens (Human), UniProt P37059); experiment: 17β-HSD2 test assay (recombinant protein from Sf9 insect cells, 3H-estradiol/NAD+); assay type: biochemical; conditions: for inhibition at 0.1 µM: read-out: HSD2 100 nM (% inhibition); for inhibition at 1 µM: read-out: HSD2 1 μM (% inhibition)
# 17β-HSD2, sequence (P37059 whole entry): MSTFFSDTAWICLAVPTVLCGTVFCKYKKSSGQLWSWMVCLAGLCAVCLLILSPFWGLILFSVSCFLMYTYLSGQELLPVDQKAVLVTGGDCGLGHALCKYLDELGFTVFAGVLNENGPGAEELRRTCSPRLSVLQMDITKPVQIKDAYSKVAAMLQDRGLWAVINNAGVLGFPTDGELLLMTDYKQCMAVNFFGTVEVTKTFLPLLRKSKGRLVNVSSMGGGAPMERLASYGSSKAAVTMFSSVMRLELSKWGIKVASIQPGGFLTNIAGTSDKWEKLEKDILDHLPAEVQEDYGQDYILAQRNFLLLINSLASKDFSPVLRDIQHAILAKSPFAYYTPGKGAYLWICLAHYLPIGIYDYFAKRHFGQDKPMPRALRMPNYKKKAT
# Method: Recombinant protein obtained from Sf9 insect cells (0.1 μg/ml) is incubated with 20 mM KH2PO4, pH 7.4, 30 nM ^3H-estradiol and 1 mM NAD+ for 30 min at RT in the presence of the potential inhibitor in a concentration of 1 μM or 100 nM. The stock solutions of the compounds are prepared in DMSO so that the final concentration of DMSO in the sample is 1%. After the prescribed incubation time, the reaction is quenched by adding trichloroacetic acid (10% final concentration). The samples are centrifuged in microtitration plates at 400 rpm for 10 min, and the supernatants are charged on a reversed-phase HPLC equipped with a Waters Symmetrie C18 column and
# Waters Sentry Guard column. The isocratic HPLC run is performed at RT with a flow rate of 1 ml/min and acetonitrile/water 48:52 as the eluent. The radioactivity was measured by means of a Packard Flow Scintillation Analyzer. The percent inhibition was calculated by means of the formulas stated above.
# CaCo-2 cells = experiment: CaCo-2 assay (transport experiments); assay type: in vitro ADME; conditions: for Permeability: class in words; for final basolateral concentration [μM ± SD]: initial donor concentration 50 μM
# Method: (§1) Four reference compounds (atenolol, testosterone, ketoprofene and erythromycin) were employed in each assay for evaluating the transport properties of the CaCo-2 cells. The initial concentration of the compounds in the donor compartment was 50 μM (in buffer with 1% ethanol or DMSO). […] For glycoprotein P (P-gp) studies, bidirectional experiments were performed. The absorptive and secretory permeabilities (Papp(a-b) and Papp(b-a)) were determined. Thus, erythromycin was used as a substrate, and verapamil was used as an inhibitor of P-gp. Each experiment was performed in triplicate. The integrity of the monolayer was determined by means of TEER (transepithelial electric resistance) and the permeability for each assay was determined using Lucifer Yellow. All samples of the CaCo-2 transport experiments were analyzed by means of LC/MS/MS after dilution with buffer (1:1 with 2% acetic acid).
# [2] = CaCo-2 assay (transport experiments); assay type: in vitro ADME; conditions: human, Caco-2; initial donor concentration 50 μM
# Method: as §1
# [3] = In vivo pharmacokinetics (rat), single oral administration; conditions: single oral administration 50 mg/kg, male Wistar rats
# [4] = relative binding affinity (estradiol: 100%)
Structure (SMILES),inhibition at 0.1 µM (17β-HSD2; inhibitor 100 nM),inhibition at 1 µM (17β-HSD2; inhibitor 1 μM),inhibition at 1 µM (17β-HSD1; inhibitor 1 μM),inhibition at 0.1 µM (17β-HSD1; inhibitor 100 nM),other results
"CS(=O)(=O)Nc1cccc(-c2c(O)ccc3cc(-c4cccc(O)c4)ccc23)c1 [Compound 64, N-(3-(2-Hydroxy-6-(3-hydroxyphenyl)naphthalene-1-yl)phenyl)methanesulfonamide]",31.1%,71.3%,–,–,T1/2z [1]: 1.1 h; tz [1]: 10.0 h; AUC(0-t) [1]: 1330 ng·h/mL; Tmax [1]: 2 h; AUC(0-inf) [1]: 1330 ng·h/mL; inhibition at 1 µM (17β-HSD1): 90.8%; inhibition at 0.1 µM (17β-HSD1): 88.1%; RBA ERβ [%] (estrogen receptor β): 0.007%; RBA ERα [%] (estrogen receptor α): 0.012%
"O=C(Nc1ccccc1)c1c(O)ccc2cc(-c3cccc(O)c3)ccc12 [Compound 42, 2-Hydroxy-6-(3-hydroxyphenyl)-N-phenyl-1-naphthamide]",< 10%,16.3%,80.2%,40%,"mass balance [% ± SD] (CaCo-2 cells): 7.6 ± 0.5%; Permeability (CaCo-2 cells): moderate; final basolateral concentration [μM ± SD] (CaCo-2 cells): 1.1 ± 0.1 µM; Papp at 180 min, 50 μM [2]: 1.5 ×10⁻⁶ cm/s"
"Oc1cccc(-c2ccc3c(-c4cccc(O)c4)c(O)ccc3c2)c1 [Compound 57, 1,6-Bis(3-hydroxyphenyl)naphthalene-2-ol]",–,–,92.6%,82.9%,T1/2z [1]: 0.9 h; tz [1]: 10.0 h; AUC(0-t) [1]: 10700 ng·h/mL; Tmax [1]: 6 h; AUC(0-inf) [1]: 10700 ng·h/mL; RBA ERβ [%] (estrogen receptor β; [4]): 0.020%; RBA ERα [%] (estrogen receptor α; [4]): 0.0013%; inhibition at 0.1 µM (17β-HSD2): < 10%; inhibition at 1 µM (17β-HSD2): 40.1%
"Oc1cccc(-c2ccc3c(-c4ccoc4)c(O)ccc3c2)c1 [Compound 58, 1-(Furan-3-yl)-6-(3-hydroxyphenyl)naphthalene-2-ol]",60.6%,92.3%,–,–,inhibition at 1 µM (17β-HSD1): 89.1%; inhibition at 0.1 µM (17β-HSD1): 83%; RBA ERβ [%] (estrogen receptor β): 0.024%; RBA ERα [%] (estrogen receptor α): 0.022%
"CC(=O)Nc1cccc(-c2c(O)ccc3cc(-c4cccc(O)c4)ccc23)c1 [Compound 66, N-(3-(2-Hydroxy-6-(3-hydroxyphenyl)naphthalene-1-yl)phenyl)acetamide]",24.1%,63.6%,81.5%,35.1%,–
"CNC(=O)c1c(O)ccc2cc(-c3cccc(O)c3)ccc12 [Compound 41, 2-Hydroxy-6-(3-hydroxyphenyl)-N-methyl-1-naphthamide]",< 10%,21.6%,76.3%,21.8%,–
"Oc1cccc(-c2ccc3c(-c4cncnc4)c(O)ccc3c2)c1 [Compound 61, 6-(3-Hydroxyphenyl)-1-(pyrimidin-5-yl)naphthalene-2-ol]",15.5%,51.7%,22.1%,< 10%,–
"Cc1nnc(NC(=O)c2c(O)ccc3cc(-c4cccc(O)c4)ccc23)s1 [Compound 48, 2-Hydroxy-6-(3-hydroxyphenyl)-N-(5-methyl-1,3,4-thiadiazol-2-yl)-1-naphthamide]",–,24%,68%,–,–
"O=S(=O)(Nc1nccs1)c1cccc(-c2c(O)ccc3cc(-c4cccc(O)c4)ccc23)c1 [Compound 69, 3-(2-Hydroxy-6-(3-hydroxyphenyl)naphthalene-1-yl)-N-(thiazol-2-yl)-benzenesulfonamide]",24%,71%,96.3%,87%,RBA ERβ [%] (estrogen receptor β; [4]): 0.010%; RBA ERα [%] (estrogen receptor α; [4]): 0.015%
"CNC(=O)CCc1c(O)ccc2cc(-c3cccc(O)c3)ccc12 [Compound 55, 3-(2-Hydroxy-6-(3-hydroxyphenyl)naphthalene-1-yl)-N-methylpropanamide]",< 10%,35.8%,80%,< 10%,–
"Oc1cccc(-c2ccc3c(Br)c(O)ccc3c2)c1 [Compound 52, 1-Bromo-6-(3-hydroxyphenyl)naphthalene-2-ol]",19%,69%,88.4%,82.9%,RBA ERβ [%] (estrogen receptor β; [4]): 0.10%; RBA ERα [%] (estrogen receptor α; [4]): 0.081%
"N#Cc1cc(-c2cccc(O)c2)cc2ccc(O)cc12 [Compound 53, 7-Hydroxy-3-(3-hydroxyphenyl)-1-naphthonitrile]",18%,67%,74.4%,32.3%,–
"Oc1cccc(-c2ccc3c(-c4ccccc4)c(O)ccc3c2)c1 [Compound 56, 6-(3-Hydroxyphenyl)-1-phenyl-2-naphthol]",22.1%,77.2%,89.4%,76.2%,T1/2z [1]: 5.9 h; tz [1]: 24.0 h; AUC(0-t) [1]: 11700 ng·h/mL; Tmax [1]: 4 h; AUC(0-inf) [1]: 12700 ng·h/mL; RBA ERβ [%] (estrogen receptor β; [4]): 0.044%; RBA ERα [%] (estrogen receptor α; [4]): 0.055%
"O=C(/C=C/c1c(O)ccc2cc(-c3cccc(O)c3)ccc12)Nc1ccccc1 [Compound 40, (E)-3-(2-Hydroxy-6-(3-hydroxyphenyl)naphthalene-1-yl)-N-phenylacrylamide]",28.1%,76.9%,60.4%,< 10%,–
"Oc1cccc(-c2ccc3c(-c4ccncc4)c(O)ccc3c2)c1 [Compound 60, 6-(3-Hydroxyphenyl)-1-(pyridin-4-yl)naphthalene-2-ol]",12.2%,48.5%,–,–,inhibition at 1 µM (17β-HSD1): 85.9%; inhibition at 0.1 µM (17β-HSD1): 74.4%; RBA ERβ [%] (estrogen receptor β; [4]): 0.003%; RBA ERα [%] (estrogen receptor α; [4]): 0.0068%
"O=C(Nc1cccc(O)c1)c1c(O)ccc2cc(-c3cccc(O)c3)ccc12 [Compound 43, 2-Hydroxy-N,6-bis(3-hydroxyphenyl)-1-naphthamide]",< 10%,< 10%,69.9%,20.5%,–
"Oc1cccc(-c2ccc3c(-c4ccc(N5CCOCC5)cc4)c(O)ccc3c2)c1 [Compound 65, 6-(3-Hydroxyphenyl)-1-(4-morpholinophenyl)naphthalene-2-ol]",12.4%,31.9%,64.9%,31.9%,–
"O=C(O)CCC(=O)Nc1ccc(-c2c(O)ccc3cc(-c4cccc(O)c4)ccc23)cc1 [Compound 67, 4-(4-(2-Hydroxy-6-(3-hydroxyphenyl)naphthalene-1-yl)phenylamino)-4-oxobutanoic acid]",24.2%,68%,62.3%,< 10%,–
"Nc1cccc(-c2c(O)ccc3cc(-c4cccc(O)c4)ccc23)c1 [Compound 68, 1-(3-Aminophenyl)-6-(3-hydroxyphenyl)naphthalene-2-ol]",< 10%,39.1%,87.3%,74.1%,"T1/2z [1]: 2.4 h; tz [1]: 24.0 h; AUC(0-t) [1]: 539 ng·h/mL; Tmax [1]: 2 h; AUC(0-inf) [1]: 540 ng·h/mL; mass balance [% ± SD] (CaCo-2 cells): 52.7 ± 3.6%; Permeability (CaCo-2 cells): high; final basolateral concentration [μM ± SD] (CaCo-2 cells): 13.9 ± 0.8 µM; Papp at 180 min, 50 μM [2]: 16.4 ×10⁻⁶ cm/s; AUC(0-t) ([3]; rat, plasma): 337 ng·h/mL; Tmax ([3]; rat, plasma): 2 h; AUC(0-inf) ([3]; rat, plasma, extrapolated to ∞): 337 ng·h/mL; t1/2z [3]: 1.59 h; tz [3]: 8.0 h"
